Experimental data published in paper PMC4585962, “A peptide factor secreted by Staphylococcus pseudintermedius exhibits properties of both bacteriocins and virulence factors” (Scientific Reports, 2015).
No end group written: not given here. *: point of attachment. For = O=C*

Test: Hydrodynamic diameter by dynamic light scattering
Assay type: physicochemical
Details: 0.2 mg/ml in PBS, room temperature, filtered 0.2 μm, average of three independent measurements; suggests elongated shape or dimers
Procedure: The hydrodynamic diameter of the BacSp222 molecule was determined at room temperature by the dynamic light scattering (DLS) technique using a Zetasizer Nano ZS apparatus (Malvern Instruments); a 0.2 mg/ml solution of the peptide in phosphate buffered saline (PBS) was used for analysis. Prior to measurements, the solution was filtered through a 0.2 μm bioinert membrane (Sigma). The obtained spectra were averaged over three independent measurements. The size of BacSp222 was also evaluated by gel filtration chromatography using a Superdex Peptide 10/300 GL column (GH Healthcare) operated in PBS with a 0.3 ml/min flow rate.

In the case of “For-MAGLLRFLLSKGRALYNWAKSHVGKVWEWLKSGATYEQIKEWIENALGWR [BacSp222]”, the “hydrodynamic diameter estimated by DLS” value is reported as 3.68 nm.
